We go through nine compounds from PubChem BioAssay (NCI).

Some test systems named below: OVCAR-4 ovarian; M14 melanoma; SF-268 CNS; EKVX NSCLC; NCI/ADR-RES ovarian; SK-MEL-28 melanoma; NCI-H23 lung; PC-3 prostate; SW-620 colon; SK-OV-3 ovarian.
Test in all cases: inhibition of tumour cell growth, NCI panel, 48 h

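Test compounds were applied to cells in 96-well plates for 48 hours at 5 doses. Here, GI50 denotes the concentration required for 50% inhibition of growth. TGI denotes the concentration required for complete inhibition of growth.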 A value given as a limit tells only on which side of the number the result lay.

Turning to `ClCc1cccc(Cn2cnc3c(Cl)nc(Cl)nc32)c1`, the GI50 with OVCAR-4 ovarian was 5.51 µM; in the experiment with M14 melanoma it was 1.79 µM; in the experiment with SF-268 CNS, 2.5 µM; in the experiment with EKVX NSCLC it was 1.74 µM; in the experiment with NCI/ADR-RES ovarian, 2.42 µM; in the experiment with SK-MEL-28 melanoma it was 2.34 µM. Moreover, the GI50 in the experiment on NCI-H23 lung is 2.14 µM; with PC-3 prostate it was 2.38 µM; in the experiment with SW-620 colon it was 1.57 µM. In addition, the TGI turned out to be 20.1 µM in the experiment on OVCAR-4 ovarian; 3.41 µM in the experiment with M14 melanoma; 6.64 µM with SF-268 CNS; 3.35 µM in the experiment with EKVX NSCLC; 5.23 µM in the experiment on NCI/ADR-RES ovarian; 5.38 µM in the experiment with SK-MEL-28 melanoma. For the same compound, the TGI worked out at 5.09 µM in the experiment on NCI-H23 lung, 5.02 µM with PC-3 prostate and 3.5 µM in the experiment on SW-620 colon.
Regarding `O=C(Nc1cccc2[nH]c(C(F)(F)F)nc12)c1cc(Cl)ccc1Cl`, the GI50 is 2.59 µM in the experiment with OVCAR-4 ovarian; 3.32 µM in the experiment with M14 melanoma; 2.21 µM with SK-OV-3 ovarian; 4.69 µM in the experiment with SF-268 CNS; 2.87 µM in the experiment on NCI/ADR-RES ovarian; 4.95 µM in the experiment with SK-MEL-28 melanoma. The GI50 was 2.81 µM with NCI-H23 lung, 3.1 µM in the experiment on PC-3 prostate and 3.6 µM in the experiment on SW-620 colon. For the same compound, the TGI in the experiment on OVCAR-4 ovarian was over 100 µM; with M14 melanoma, 16.3 µM; in the experiment on SK-OV-3 ovarian it was 6.06 µM; in the experiment on SF-268 CNS, over 100 µM; with NCI/ADR-RES ovarian, 8.89 µM; in the experiment on SK-MEL-28 melanoma, 35.4 µM. The TGI came out at 7.78 µM in the experiment on NCI-H23 lung, 92.9 µM in the experiment with PC-3 prostate and 14.8 µM with SW-620 colon.
In the case of `COc1ccc(-c2c(C#N)c(N)nc(N3CCOCC3)c2C#N)cc1`, the GI50 in the experiment with OVCAR-4 ovarian was 47 µM; in the experiment on M14 melanoma, 22.6 µM; in the experiment on SK-OV-3 ovarian it was 4.99 µM; in the experiment with SF-268 CNS, 32.3 µM; in the experiment on EKVX NSCLC, 21.4 µM; with NCI/ADR-RES ovarian, 20.6 µM. For the same compound, the GI50 in the experiment with SK-MEL-28 melanoma is 33.9 µM; with PC-3 prostate, 17.6 µM; in the experiment with SW-620 colon, 50.3 µM. The TGI is over 100 µM in the experiment with OVCAR-4 ovarian; 72.8 µM in the experiment on M14 melanoma; 27.3 µM in the experiment on SK-OV-3 ovarian; over 100 µM in the experiment with SF-268 CNS; over 100 µM in the experiment with EKVX NSCLC; 87.3 µM in the experiment on NCI/ADR-RES ovarian. Besides, the TGI is over 100 µM in the experiment with SK-MEL-28 melanoma, 67.3 µM in the experiment with PC-3 prostate and over 100 µM in the experiment on SW-620 colon.
Turning to `Nc1c(C(=O)c2cccc(C#CCN3CCCCC3)c2)cnn1-c1ccc(F)cc1`, the GI50 in the experiment on OVCAR-4 ovarian is over 22.6 µM; with M14 melanoma, over 25 µM; in the experiment on SK-OV-3 ovarian, over 25 µM; with SF-268 CNS, over 25 µM; with NCI/ADR-RES ovarian, over 19.9 µM; in the experiment with SK-MEL-28 melanoma, over 25 µM. Moreover, the GI50 in the experiment with NCI-H23 lung was over 22.5 µM; with PC-3 prostate it was over 25 µM; in the experiment with SW-620 colon, over 25 µM. For the same compound, the TGI with OVCAR-4 ovarian, with M14 melanoma, in the experiment with SK-OV-3 ovarian, in the experiment on SF-268 CNS, in the experiment on NCI/ADR-RES ovarian and in the experiment on SK-MEL-28 melanoma was over 25 µM each time. Moreover, the TGI in the experiment on NCI-H23 lung, in the experiment with PC-3 prostate and in the experiment with SW-620 colon was over 25 µM throughout.
Take `COc1ccc(-c2cnnn2-c2nonc2-n2cccc2)cc1OC`: the GI50 in the experiment on OVCAR-4 ovarian is 18.6 µM; with M14 melanoma, 3.28 µM; in the experiment on SK-OV-3 ovarian, 5.18 µM; with SF-268 CNS it was 8.06 µM; in the experiment with NCI/ADR-RES ovarian, 2.02 µM; in the experiment on SK-MEL-28 melanoma, 7.74 µM. Besides, the GI50 with NCI-H23 lung was 4.09 µM; in the experiment with PC-3 prostate, 14.1 µM; in the experiment with SW-620 colon, 3.61 µM. Also, the TGI in the experiment with OVCAR-4 ovarian is over 100 µM; in the experiment with M14 melanoma it was over 100 µM; in the experiment on SK-OV-3 ovarian, 29.8 µM; in the experiment with SF-268 CNS it was over 100 µM; in the experiment on NCI/ADR-RES ovarian, 5.99 µM; with SK-MEL-28 melanoma, over 100 µM. Also, the TGI in the experiment on NCI-H23 lung, in the experiment on PC-3 prostate and in the experiment with SW-620 colon was over 100 µM in each case.
As for `COc1ccc(C2=NC(=O)NC2c2ccc(OC)cc2)cc1` (stereo not given), the GI50 in the experiment on OVCAR-4 ovarian was 31.5 µM; in the experiment with M14 melanoma it was 4.03 µM; in the experiment with SK-OV-3 ovarian, 19.9 µM; with SF-268 CNS, 16.5 µM; with EKVX NSCLC, 13 µM; in the experiment with NCI/ADR-RES ovarian it was 4.38 µM. The values for the GI50 with SK-MEL-28 melanoma, with NCI-H23 lung and in the experiment with SW-620 colon were 14.9 µM, 12.9 µM and 4.65 µM, respectively. The TGI is over 100 µM in the experiment with OVCAR-4 ovarian; 25.4 µM with M14 melanoma; over 100 µM in the experiment with SK-OV-3 ovarian; over 100 µM in the experiment with SF-268 CNS; 64.6 µM in the experiment with EKVX NSCLC; 58.5 µM in the experiment with NCI/ADR-RES ovarian. Besides, the TGI with SK-MEL-28 melanoma is over 100 µM; with NCI-H23 lung it was 78.3 µM; in the experiment on SW-620 colon it was over 100 µM.
As for `CN(C)c1ccc(/C=C(\NC(=O)c2ccccc2)c2nc3ccc4c(c3[nH]2)C(=O)c2ccccc2C4=O)cc1`, the TGI in the experiment with OVCAR-4 ovarian, in the experiment on M14 melanoma, in the experiment on SK-OV-3 ovarian, with SF-268 CNS, in the experiment with EKVX NSCLC and in the experiment on SK-MEL-28 melanoma was over 100 µM throughout. Also, the TGI in the experiment with NCI-H23 lung and with SW-620 colon was over 100 µM each time.
With `COc1ccc(/C=C(\NC(=O)c2ccccc2)c2nc3ccccc3[nH]2)cc1OC`, the TGI in the experiment with OVCAR-4 ovarian, in the experiment on M14 melanoma, with SK-OV-3 ovarian, in the experiment with SF-268 CNS, in the experiment with EKVX NSCLC and in the experiment with SK-MEL-28 melanoma was over 100 µM throughout. Besides, the TGI in the experiment with NCI-H23 lung and with SW-620 colon was over 100 µM in each case.
For `CC(=O)OC(C(=O)[O][Sn]([CH3])([CH3])[CH3])c1ccccc1` (stereo not given), the GI50 in the experiment with OVCAR-4 ovarian, with M14 melanoma, in the experiment with SK-OV-3 ovarian, in the experiment on SF-268 CNS, in the experiment with EKVX NSCLC and in the experiment with SK-MEL-28 melanoma was over 100 µM throughout. Besides, the GI50 in the experiment with NCI-H23 lung and in the experiment on SW-620 colon was over 100 µM each time. In addition, the TGI with OVCAR-4 ovarian, in the experiment with M14 melanoma, in the experiment on SK-OV-3 ovarian, in the experiment on SF-268 CNS, with EKVX NSCLC and with SK-MEL-28 melanoma was over 100 µM in each case. The TGI with NCI-H23 lung and in the experiment on SW-620 colon was over 100 µM each time.
